Here are results for seven molecules from US5254731A, “Substituted 3,4-dihydronaphthalenes, pharmaceutical compositions containing them, and preparation processes” (Gruenenthal GmbH, priority 1991, dated 1993).

SMILES strings stand for the structures.

The subject of test [1] is endotoxin/galactosamine-induced hepatitis. Description: endotoxin/galactosamine-induced hepatitis in mice (septic shock model). It is filed as in vivo, mouse. The conditions noted are these: for Inhibition of increase of the enzymatic activity of GPT / Inhibition of increase of the enzymatic activity of SDH: i.p., 10 mg/kg for each of five administrations, serum, 8 hours after endotoxin; for shock mortality: endotoxin/galactosamine-induced hepatitis model. The procedure:
To evaluate the effects of compounds according to the invention on septic shock, endotoxin/galactosamine-induced hepatitis in mice was used as test model. […] Intraperitoneal administration of compounds of formula I 30 minutes before, simultaneously with, and 2, 4 and 6 hours after administration of the endotoxin inhibits the hepatitis-induced increase of the activities of these enzymes in the serum. On administration of compounds of formula I in doses of 10 mg/kg for each of the five administrations, the following percentage inhibitions of the increase of the enzymatic activities of GPT and SDH were achieved (the increase of enzymatic activities in control animals who had been treated five times with a solution containing 1% by weight of sodium carboxymethylcellulose was set at 100%): […]

Test [2] has as its system bronchoconstriction elicited by ovalbumin. In words: anti-asthmatic effect: ovalbumin-elicited bronchoconstriction in anesthetized, passively sensitized guinea pigs. The test is classed as in vivo, guinea pig. Conditions: Cavia porcellus, 1 h; oral, 60 minutes before ovalbumin 0.2 mg/kg i.v.; read-out: ED40 (40% average inhibition of the bronchoconstriction elicited by ovalbumin). The procedure: The anti-asthmatic effect of compounds according to the invention was tested in anesthetized and ventilated guinea pigs. To induce an asthmatic reaction, the animals were passively sensitized by a single intraperitoneal injection of anti-ovalbumin serum. After 48 hours the asthmatic reaction was elicited by intravenous challenge with 0.2 mg/kg of ovalbumin. The immediately resulting bronchoconstriction was measured as an increase in intratracheal pressure. Effects caused by histamine, serotonin and sympathic counterreaction were eliminated by intravenous pretreatment with 2.15 mg/kg of mepyramine, 46.4 mg/kg of propranolol, 4.64 mg/kg of atropine and 1 mg/kg of methysergide, all administered 5 minutes before challenge. Substituted 3,4-dihydronaphthalenes were orally administered 60 minutes before the administration of ovalbumin.

[3] abbreviates: comparative compound, aforementioned test model.
Setting [4] is: comparative compounds of formula A, aforementioned test model.

For `COc1ccc2c(c1)CCC(CN(O)C(N)=O)=C2` [Example 3, N-hydroxy-N-[(6-methoxy-3,4-dihydronaphth-2-yl)methyl]urea], in test [1], the “Inhibition of increase of the enzymatic activity of GPT” value (from here on “Inhibition of increase … of GPT”) amounted to 78% and the “Inhibition of increase of the enzymatic activity of SDH” value (“Inhibition of increase … of SDH” below) is on record as 57%. In test [2], the ED40 stood at 33.5 mg/kg.

`NC(=O)N(O)CC1=Cc2ccc(OCc3ccccc3)cc2CC1` [Example A1, reference compound]: in test [1] (setting [3]), the “inhibition of GPT (in words)” value was “did not cause either an inhibition of GPT”; the “inhibition of SDH (in words)” value is “did not cause either an inhibition of GPT and SDH”. For the same molecule, the shock mortality result in test [1] is “did not cause either an inhibition of GPT and SDH or a decrease in the shock mortality”.

Regarding `CC(=O)N(O)CC1=Cc2ccc(OCc3ccccc3)cc2CC1` [Example A2, reference compound], in test [1] (setting [4]), the “inhibition of GPT” value came out at 16% and the “inhibition of SDH” value is listed as 32%. For the same molecule, the shock mortality entry in test [1] is listed as “no detectable influence on shock mortality”.

For `CC(=O)N(O)CC1=Cc2ccc(OC3CCCC3)cc2CC1` [Example 6a, N-[(6-cyclopentyloxy 3,4-dihydronaphth 2 yl)methyl]acetohydroxamic acid], the ED40 in test [2] stood at 275 mg/kg.

Consider `CC(C)Oc1ccc2c(c1)CCC(CN(O)C(N)=O)=C2` [Example 6e, N-hydroxy-N-[(6-isopropoxy-3,4-dihydronaphth-2-yl)methyl]urea], for which the ED40 in test [2] was determined as 368 mg/kg.

In the case of `COc1ccc2c(c1)CCC(CN(O)C(C)=O)=C2` [Example 1, N-[(6-methoxy-3,4-dihydronaphth-2-yl)methyl]acetohydroxamic acid], in test [1], the “Inhibition of increase … of GPT” value came to 54% and the “Inhibition of increase … of SDH” value is given as 41%.

`COc1ccc2c(c1)CCC(C(C)N(O)C(C)=O)=C2` (stereo not drawn) [Example 2, N-[1-(6-methoxy-3,4-dihydronaphth-2-yl)ethyl]acetohydroxamic acid]: in test [1], the “Inhibition of increase … of GPT” value came to 56% and the “Inhibition of increase … of SDH” value was 69%.
